Key:
[1] = target: T1, Recombinant human liver GK1 (GST-GK) (Homo sapiens, UniProt P35557); experiment: Glucokinase in vitro assay (G6PDH-coupled NADH generation, OD340); type: biochemical; conditions: 5 mM D-glucose; for SC1.5 average (concentration of activator that produced a 50% increase in the activity of GK): 30° C., pH 7.1, 10% DMSO
T1 construct: made in house; host or cells: E. coli
T1 sequence (P35557 1-466 isoform P35557-2): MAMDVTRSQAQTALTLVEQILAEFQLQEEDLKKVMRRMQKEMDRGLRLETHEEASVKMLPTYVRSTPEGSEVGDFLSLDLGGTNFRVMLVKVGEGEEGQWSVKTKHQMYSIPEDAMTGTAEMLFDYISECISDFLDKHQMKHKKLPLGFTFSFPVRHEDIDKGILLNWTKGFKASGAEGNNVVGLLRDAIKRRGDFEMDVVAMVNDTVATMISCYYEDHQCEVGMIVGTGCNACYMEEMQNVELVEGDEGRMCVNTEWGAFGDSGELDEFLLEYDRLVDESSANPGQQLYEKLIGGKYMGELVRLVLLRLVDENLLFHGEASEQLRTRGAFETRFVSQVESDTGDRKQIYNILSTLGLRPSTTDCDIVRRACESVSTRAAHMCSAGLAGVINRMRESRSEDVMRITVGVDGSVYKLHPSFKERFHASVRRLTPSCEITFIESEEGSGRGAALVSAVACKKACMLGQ
Summary of the method: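 GST-tagged recombinant GK1 expressed in E. coli, run at 30° C, pH 7.1 Hepes with 5 mM D-glucose, 1 mM ATP and 1.8 mM NAD, G6PDH-coupled. Compounds were in 10% DMSO final, with a 10 min pre-incubation before enzyme addition. OD340/min rate measured; SC1.5 is the activator concentration giving a 50% increase in activity.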

Lean C57BL/6J mice = experiment: Glucokinase activator in vivo screen, blood glucose in lean mice; conditions: Mus musculus, vs control at 4 hours post 50 mg/kg oral dose, two hour fast, read-out: % glucose lowering @ 4 H
Protocol: Glucokinase Activator in vivo Screen Protocol in Lean and Diet Induced Obese Mice: Lean or Diet-induced Obese (DIO) C57BL/6J mice were orally dosed via gavage with Glucokinase (GK) activator following a two hour fasting period. Blood glucose determinations were made at various (e.g. 0, 1, 2, 4 and 8 hours post-oral gavage) times during the study.
C57Bl/6J mice were obtained from Jackson Laboratory (Bar Harbor, Me.) and were maintained in a light-dark cycle with lights on from 0600-1800 hr. For studies in lean mice, the mice were received at age ten weeks and given ad libitum access to control diet (LabDiet 5001 chow, PMI Nutrition, Brentwood, Mo.), and were at least age 11 weeks at the time of study. For studies in the DIO model, the mice were received at age five weeks and given ad libitum access to Bio-Serv F3282 High Fat Diet (Frenchtown, N.J.), and were at least age 16 weeks at the time of study. The experiments were conducted during the light phase of the light-dark cycle. Mice (n=6) are weighed and fasted for a two hour period prior to oral treatment. GK activators are formulated in Gelucire vehicle (Ethanol:Gelucire44/14:PEG400q.s. 4:66:30 v/w/v. For studies in lean mice, the mice were dosed orally with 5.0 μL per gram of body weight (i.e. 5 ml/kg×10.0 mg/ml formulation to equal a 50 mg/kg dose). For studies in DIO mice, the mice were dosed orally with 5.0 μL per gram of body weight (i.e. 5.0 ml/kg×5 mg/ml formulation to equal a 25 mg/kg dose). Immediately prior to dosing, a pre-dose (time zero) blood glucose reading was acquired by snipping off a small portion of the animal's tail and collecting 15 μL blood into a heparinized capillary tube for analysis. Following GK activator administration, additional blood glucose readings were taken at various time points post dose from the same tail wound. Results were interpreted by comparing the mean blood glucose values of vehicle treated mice with GK activator treated mice over the study period.
The Table below provides data for % glucose lowering of a representative number of compounds of the present invention vs control at 4 hours post 50 mg/kg dose in lean C57BL/6J mice: […]

| SC1.5 average (concentration of activator that produced a 50% increase in the activity of GK) [1] | fold activation @ 30 uM ([1]; 30 uM test compound) | SMILES | change in vivo at 50 mg/kg (Lean C57BL/6J mice) |
| --- | --- | --- | --- |
| 0.227 µM | – | CC(C)(O)Cn1ccc(NC(=O)C(CC2CCCC2)n2ncc(Oc3ccccc3C#N)cc2=O)n1 (centres unmarked) [Example 29, 2-[4-(2-Cyano-phenoxy)-6-oxo-6H-pyridazin-1-yl]-3-cyclopentyl-N-[1-(2-hydroxy-2-methyl-propyl)-1H-pyrazol-3-yl]-propionamide] | -27.8% |
| 0.347 µM | – | CC(C)(O)Cn1ccc(NC(=O)C(CC2CCCC2)n2ncc(Oc3ccccc3C3CCCC3)cc2=O)n1 (centres unmarked) [Example 22, 3-Cyclopentyl-2-[4-(2-cyclopentyl-phenoxy)-6-oxo-6H-pyridazin-1-yl]-N-[1-(2-hydroxy-2-methyl-propyl)-1H-pyrazol-3-yl]-propionamide] | -31.6% |
| 0.356 µM | – | CC(C)(O)Cn1ccc(NC(=O)C(CC2CCCC2)n2ncc(Oc3cc(F)ccc3F)cc2=O)n1 (centres unmarked) [Example 33, 3-Cyclopentyl-2-[4-(2,5-difluoro-phenoxy)-6-oxo-6H-pyridazin-1-yl]-N-[1-(2-hydroxy-2-methyl-propyl)-1H-pyrazol-3-yl]-propionamide] | -30.2% |
| 0.174 µM | – | Cc1ccccc1Oc1cnn(C(CC2CCCC2)C(=O)Nc2ccn(CC(C)(C)O)n2)c(=O)c1 (centres unmarked) [Example 24, 3-Cyclopentyl-N-[1-(2-hydroxy-2-methyl-propyl)-1H-pyrazol-3-yl]-2-(6-oxo-4-o-tolyloxy-6H-pyridazin-1-yl)-propionamide] | -62.1% |
| 0.063 µM | – | CC(C)(O)Cn1ccc(NC(=O)C(CC2CCCC2)n2ncc(Oc3c(F)cccc3F)cc2=O)n1 (centres unmarked) [Example 36, 3-Cyclopentyl-2-[4-(2,6-difluoro-phenoxy)-6-oxo-6H-pyridazin-1-yl]-N-[1-(2-hydroxy-2-methyl-propyl)-1H-pyrazol-3-yl]-propionamide] | -60.9% |
| 0.256 µM | – | Cn1ccc(NC(=O)C(CC2CCCC2)n2ncc(Oc3ccccc3C(F)(F)F)cc2=O)n1 (centres unmarked) [Example 14, 3-Cyclopentyl-N-(1-methyl-1H-pyrazol-3-yl)-2-[6-oxo-4-(2-trifluoromethyl-phenoxy)-6H-pyridazin-1-yl]-propionamide] | -46.7% |
| 0.088 µM | – | CCOc1ccc(F)c(Oc2cnn(C(CC3CCOCC3)C(=O)Nc3ccn(C[C@@H](O)CO)n3)c(=O)c2)c1F (stereo partly drawn) [Example 121, N-[1-((R)-2,3-Dihydroxy-propyl)-1H-pyrazol-3-yl]-2-[4-(3-ethoxy-2,6-difluoro-phenoxy)-6-oxo-6H-pyridazin-1-yl]-3-(tetrahydro-pyran-4-yl)-propionamide] | – |
| 0.067 µM | – | O=C(Nc1ccn(C[C@@H](O)CO)n1)C(CC1CCCC1)n1ncc(Oc2cccc3[nH]ccc23)cc1=O (stereo partly drawn) [Example 96, 3-Cyclopentyl-N-[1-((R)-2,3-dihydroxy-propyl)-1H-pyrazol-3-yl]-2-[4-(1H-indol-4-yloxy)-6-oxo-6H-pyridazin-1-yl]-propionamide] | – |
| 0.166 µM | – | O=C(Nc1ccn(CCO)n1)C(CC1CCCC1)n1ncc(Oc2c(F)cccc2F)cc1=O (centres unmarked) [Example 60, 3-Cyclopentyl-2-[4-(2,6-difluoro-phenoxy)-6-oxo-6H-pyridazin-1-yl]-N-[1-(2-hydroxy-ethyl)-1H-pyrazol-3-yl]-propionamide] | – |
| 0.038 µM | – | CC(C)(O)Cn1ccc(NC(=O)[C@H](CC2CCCCC2)n2ncc(Oc3c(F)cccc3F)cc2=O)n1 [Example 51A, (S)-3-Cyclohexyl-2-[4-(2,6-difluoro-phenoxy)-6-oxo-6H-pyridazin-1-yl]-N-[1-(2-hydroxy-2-methyl-propyl)-1H-pyrazol-3-yl]-propionamide] | – |
| 0.244 µM | – | O=C(Nc1ccn(C[C@@H](O)CO)n1)C(CC1CCCC1)n1ncc(Oc2ccccc2OC(F)(F)F)cc1=O (stereo partly drawn) [Example 98, 3-Cyclopentyl-N-[1-((R)-2,3-dihydroxy-propyl)-1H-pyrazol-3-yl]-2-[6-oxo-4-(2-trifluoromethoxy-phenoxy)-6H-pyridazin-1-yl]-propionamide] | – |

More lines, now with the values behind:

| SMILES | SC1.5 average (concentration of activator that produced a 50% increase in the activity of GK) [1] | fold activation @ 30 uM ([1]; 30 uM test compound) | change in vivo at 50 mg/kg (Lean C57BL/6J mice) |
| --- | --- | --- | --- |
| Cn1nc(NC(=O)C(CC2CCCC2)n2ncc(Oc3ccccc3C(F)(F)F)cc2=O)cc1Cl (centres unmarked) [Example 13, N-(5-Chloro-1-methyl-1H-pyrazol-3-yl)-3-cyclopentyl-2-[6-oxo-4-(2-trifluoromethyl-phenoxy)-6H-pyridazin-1-yl]-propionamide] | 0.179 µM | – | -45.8% |
| O=C(O)c1ccc(NC(=O)C(CC2CCCC2)n2ncc(Oc3ccccc3C3CCCC3)cc2=O)nc1 (centres unmarked) [Example 71, 6-{3-Cyclopentyl-2-[4-(2-cyclopentyl-phenoxy)-6-oxo-6H-pyridazin-1-yl]-propionylamino}-nicotinic acid] | 0.312 µM | – | -61.7% |
| O=C(Nc1nccs1)C(CC1CCCC1)n1ncc(Oc2ccccc2)cc1=O (centres unmarked) [Example 2, 3-Cyclopentyl-2-(6-oxo-4-phenoxy-6H-pyridazin-1-yl)-N-thiazol-2-yl-propionamide] | 0.206 µM | – | -41.9% |
| CC(C)(O)Cn1ccc(NC(=O)C(CC2CCOCC2)n2ncc(Oc3ccccc3Cl)cc2=O)n1 (centres unmarked) [Example 135, 2-[4-(2-Chloro-phenoxy)-6-oxo-6H-pyridazin-1-yl]-N-[1-(2-hydroxy-2-methyl-propyl)-1H-pyrazol-3-yl]-3-(tetrahydro-pyran-4-yl)-propionamide] | 0.235 µM | – | – |
| Cn1nc(NC(=O)C(CC2CCCC2)n2ncc(Oc3ccccc3C(F)(F)F)cc2=O)cc1C(F)(F)F (centres unmarked) [Example 45, 3-Cyclopentyl-N-(1-methyl-5-trifluoromethyl-1H-pyrazol-3-yl)-2-[6-oxo-4-(2-trifluoromethyl-phenoxy)-6H-pyridazin-1-yl]-propionamide] | > 30 µM | 1.15 fold | – |
| O=C(Nc1ccn(CCO)n1)C(Cc1c(F)cccc1F)n1ncc(Oc2c(F)cccc2F)cc1=O (centres unmarked) [Example 57, 2-[4-(2,6-Difluoro-phenoxy)-6-oxo-6H-pyridazin-1-yl]-3-(2,6-difluoro-phenyl)-N-[1-(2-hydroxy-ethyl)-1H-pyrazol-3-yl]-propionamide] | 0.986 µM | – | – |
| CC(C)(O)Cn1ccc(NC(=O)C(CC2CCCC2)n2ncc(Cc3cccc(C(F)(F)F)c3)cc2=O)n1 (centres unmarked) [Example 47, 3-Cyclopentyl-N-[1-(2-hydroxy-2-methyl-propyl)-1H-pyrazol-3-yl]-2-[6-oxo-4-(3-trifluoromethyl-benzyl)-6H-pyridazin-1-yl]-propionamide] | 1.366 µM | – | – |
| CC(C)(O)Cn1ccc(NC(=O)C(CC2CCCCC2)n2ncc(Oc3ccc(OC(F)(F)F)cc3Cl)c(Cl)c2=O)n1 (centres unmarked) [Example 130, 2-[5-Chloro-4-(2-chloro-4-trifluoromethoxy-phenoxy)-6-oxo-6H-pyridazin-1-yl]-3-cyclohexyl-N-[1-(2-hydroxy-2-methyl-propyl)-1H-pyrazol-3-yl]-propionamide] | 10.224 µM | – | – |
